Laboratory results published in patent publication US9096593B2, “Compounds and methods for kinase modulation, and indications therefor” (Plexxikon Inc., priority 2009, dated 2015).
Like-named read-outs stand apart in the source and are kept apart here. One block for each molecule: values may come before it.

Key:
Assay in all cases: CYP enzyme inhibition, fluorescent substrate
[1] = biological target: CYP2C19 (Homo sapiens (Human), UniProt P33261)
Experimental: (§1) CYP (Cytochrome P450) enzymes are the major drug metabolizing enzymes present in the liver. The inhibition of CYP enzyme activity (IC50) for each of CYP1A2, CYP2C19, CYP2C9, CYP2D6, CYP3A4(BFC) and CYP3A4(BQ) is determined for compounds, where inhibition of metabolism of a known substrate leads to a decrease in the fluorescence of the metabolized product. The fluorescence of the product is monitored as a function of compound concentration.
(§2) Compounds are dissolved in DMSO to a concentration of 100 mM. These are diluted 1 μL into 82 μL of acetonitrile. An 11 μL aliquot of this solution is then added to 204 μL of cofactor mix (1.3% NADPH Regeneration system Solution A, 1.04% NADPH Regeneration system Solution B from BD Biosciences, 5% acetonitrile and 0.05% DMSO). These are then serially diluted 1:1 (160 μL to 160 μL co-factor mix) for a total of 10 points. A 10 μL aliquot of this final mixture is dispensed into 384 well assay plates and incubated for 10 minutes at 37° C. Enzyme and substrate mix (10 μL; […] CYP1A2/5 μM CEC; 1.0 μmol CYP2C9/75 μM MFC; […] CYP2C19/25 μM CEC; 1.5 μmol CYP2D6/1.5 μM AMMC; 1.0 μmol CYP3A4/50 μM BFC; or 1.0 μmol CYP3A4/40 μM BQ) is added to these assay plates. Assay plates are incubated at 37° C. (CYP1A2-15 min; CYP2C9-45 min; CYP2C19, 2D6 and 3A4-30 min) and read in a Tecan Safire 2 plate reader (CYP1A2, 2C19 and 3A4 409 ex/460 em; CYP2C9 and 2D6409 ex/530 em). The signal versus compound concentration is used to determine the IC50. The enzymes and substrates for this assay are obtained from BD Biosciences.

[2] = biological target: CYP2C9 (Homo sapiens (Human), UniProt P11712)
Experimental: as §1, §2

[3] = biological target: CYP2D6 (Homo sapiens (Human), UniProt P10635); conditions: read-out: Cyp IC50 (μM) 2D6
Experimental: as §1, §2

[4] = biological target: CYP3A4(BFC) (Homo sapiens (Human), UniProt P08684)
Experimental: as §1, §2

[5] = biological target: CYP3A4(BQ) (Homo sapiens (Human), UniProt P08684)
Experimental: as §1, §2

[6] = biological target: CYP1A2 (Homo sapiens (Human), UniProt P05177); conditions: human, 15 min
Experimental: as §1, §2

[7] = human, CYP2C9 enzyme (BD Biosciences), 45 min
[8] = read-out: Cyp IC50 (μM) 3A4(BFC), BFC substrate
[9] = read-out: Cyp IC50 (μM) 3A4(BQ), BQ substrate

CYP2C9, sequence (P11712 whole entry): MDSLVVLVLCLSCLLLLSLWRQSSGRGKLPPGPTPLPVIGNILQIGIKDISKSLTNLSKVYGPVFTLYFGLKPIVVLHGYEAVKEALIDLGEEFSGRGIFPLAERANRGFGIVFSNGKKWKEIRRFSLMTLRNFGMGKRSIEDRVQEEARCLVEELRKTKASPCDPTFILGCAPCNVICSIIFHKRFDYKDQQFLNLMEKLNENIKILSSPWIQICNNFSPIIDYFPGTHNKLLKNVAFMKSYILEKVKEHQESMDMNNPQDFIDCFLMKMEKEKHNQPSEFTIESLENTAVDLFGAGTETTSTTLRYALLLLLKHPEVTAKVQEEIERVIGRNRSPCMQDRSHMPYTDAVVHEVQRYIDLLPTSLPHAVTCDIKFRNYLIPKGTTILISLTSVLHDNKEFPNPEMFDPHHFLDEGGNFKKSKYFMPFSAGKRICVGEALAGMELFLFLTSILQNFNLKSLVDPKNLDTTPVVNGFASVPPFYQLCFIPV
CYP2C19, sequence (P33261 whole entry): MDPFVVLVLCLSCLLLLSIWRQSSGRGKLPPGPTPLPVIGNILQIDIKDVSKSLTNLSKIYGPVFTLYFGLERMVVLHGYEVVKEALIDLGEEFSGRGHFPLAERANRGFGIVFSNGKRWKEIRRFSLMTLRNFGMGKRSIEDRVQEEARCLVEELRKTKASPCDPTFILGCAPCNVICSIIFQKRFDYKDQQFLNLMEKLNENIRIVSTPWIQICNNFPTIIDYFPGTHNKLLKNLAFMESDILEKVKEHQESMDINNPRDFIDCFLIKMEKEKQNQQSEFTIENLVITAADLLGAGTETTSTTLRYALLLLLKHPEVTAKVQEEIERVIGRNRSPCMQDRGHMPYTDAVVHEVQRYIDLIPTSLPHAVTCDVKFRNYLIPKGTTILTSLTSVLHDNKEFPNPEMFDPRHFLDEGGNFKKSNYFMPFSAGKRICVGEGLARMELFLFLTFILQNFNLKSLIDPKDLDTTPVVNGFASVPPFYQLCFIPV
CYP2D6, sequence (P10635 whole entry): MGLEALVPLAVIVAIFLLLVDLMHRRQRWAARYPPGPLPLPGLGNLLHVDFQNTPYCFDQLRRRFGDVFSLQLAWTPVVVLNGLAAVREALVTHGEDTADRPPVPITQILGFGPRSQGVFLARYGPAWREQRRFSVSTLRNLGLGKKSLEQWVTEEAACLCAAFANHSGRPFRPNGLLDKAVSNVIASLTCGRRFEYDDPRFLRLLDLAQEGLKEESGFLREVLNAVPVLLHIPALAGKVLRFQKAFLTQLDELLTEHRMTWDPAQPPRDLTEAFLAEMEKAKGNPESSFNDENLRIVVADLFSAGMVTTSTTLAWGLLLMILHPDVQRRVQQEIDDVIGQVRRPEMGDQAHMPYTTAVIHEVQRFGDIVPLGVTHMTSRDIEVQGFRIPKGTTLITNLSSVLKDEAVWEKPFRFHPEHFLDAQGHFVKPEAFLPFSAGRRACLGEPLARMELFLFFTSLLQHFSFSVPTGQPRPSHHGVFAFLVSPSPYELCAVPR
CYP1A2, sequence (P05177 whole entry): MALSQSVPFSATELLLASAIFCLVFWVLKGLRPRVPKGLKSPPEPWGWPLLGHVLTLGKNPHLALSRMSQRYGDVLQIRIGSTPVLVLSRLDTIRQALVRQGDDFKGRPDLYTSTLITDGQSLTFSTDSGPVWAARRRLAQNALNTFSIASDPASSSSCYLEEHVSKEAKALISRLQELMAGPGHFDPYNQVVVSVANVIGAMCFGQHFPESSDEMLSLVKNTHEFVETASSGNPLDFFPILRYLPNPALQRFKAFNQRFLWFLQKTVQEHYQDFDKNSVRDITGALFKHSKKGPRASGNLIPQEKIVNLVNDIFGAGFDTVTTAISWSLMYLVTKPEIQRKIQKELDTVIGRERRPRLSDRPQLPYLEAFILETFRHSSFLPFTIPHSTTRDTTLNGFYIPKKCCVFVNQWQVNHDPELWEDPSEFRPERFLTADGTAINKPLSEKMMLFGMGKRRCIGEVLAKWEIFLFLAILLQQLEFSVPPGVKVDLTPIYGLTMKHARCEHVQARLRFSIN
CYP3A4(BQ), sequence (P08684 whole entry): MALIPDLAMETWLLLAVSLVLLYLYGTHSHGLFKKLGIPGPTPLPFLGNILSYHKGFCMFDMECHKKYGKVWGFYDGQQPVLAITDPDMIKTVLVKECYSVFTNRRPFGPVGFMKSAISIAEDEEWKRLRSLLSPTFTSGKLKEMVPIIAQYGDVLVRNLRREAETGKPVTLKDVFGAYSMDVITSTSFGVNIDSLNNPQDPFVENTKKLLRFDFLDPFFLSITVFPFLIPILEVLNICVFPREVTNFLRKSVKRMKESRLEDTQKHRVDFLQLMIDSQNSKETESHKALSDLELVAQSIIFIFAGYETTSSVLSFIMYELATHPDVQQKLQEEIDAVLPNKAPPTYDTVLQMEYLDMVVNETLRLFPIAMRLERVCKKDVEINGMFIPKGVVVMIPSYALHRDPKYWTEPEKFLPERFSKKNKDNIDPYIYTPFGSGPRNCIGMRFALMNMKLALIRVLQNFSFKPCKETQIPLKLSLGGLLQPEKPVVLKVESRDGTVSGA
CYP3A4(BFC), sequence (P08684 whole entry): as above

SMILES: COc1ccc(CNc2ncc(Cc3c[nH]c4ncc(C)cc34)cc2F)cn1 [Compound P-1562, [3-Fluoro-5-(5-methyl-1H-pyrrolo[2,3-b]pyridin-3-ylmethyl)-pyridin-2-yl]-(6-methoxy-pyridin-3-ylmethyl)-amine]
IC50 ([1]; read-out: Cyp IC50 (μM) 2C19): > 10 µM
IC50 ([2]; read-out: Cyp IC50 (μM) 2C9): < 5 µM
IC50 [3]: > 10 µM
IC50 [4]: 5 to 10 µM
IC50 [5]: 5 to 10 µM
IC50 [6]: > 10 µM

SMILES: COc1ccc(CNc2ccc(Cc3c[nH]c4ncc(F)cc34)c(F)n2)cn1 [Compound P-1622, [6-Fluoro-5-(5-fluoro-1H-pyrrolo[2,3-b]pyridin-3-ylmethyl)-pyridin-2-yl]-(6-methoxy-pyridin-3-ylmethyl)-amine]
IC50 [2]: 5 to 10 µM
IC50 [3]: > 10 µM
IC50 [4]: 5 to 10 µM
IC50 [5]: 5 to 10 µM
IC50 [6]: > 10 µM

SMILES: COc1ncc(F)cc1CNc1ccc(Cc2c[nH]c3ncc(NC(C)=O)cc23)c(F)n1 [Compound P-1669, N-(3-{2-fluoro-6-[(5-fluoro-2-methoxy-pyridin-3-ylmethyl)-amino]-pyridin-3-ylmethyl}-1H-pyrrolo[2,3-b]pyridin-5-yl)-acetamide]
IC50 ([1]; read-out: Cyp IC50 (μM) 2C19): > 10 µM
IC50 ([2]; read-out: Cyp IC50 (μM) 2C9): < 5 µM
IC50 [3]: > 10 µM
IC50 [4]: 5 to 10 µM
IC50 [6]: > 10 µM

SMILES: CS(=O)(=O)Nc1cnc2[nH]cc(Cc3ccc(NCc4ccc(Cl)nc4)nc3F)c2c1 [Compound P-1679, N-(3-{6-[(6-Chloro-pyridin-3-ylmethyl)-amino]-2-fluoro-pyridin-3-ylmethyl}-1H-pyrrolo[2,3-b]pyridin-5-yl)-methanesulfonamide]
IC50 [2, 7]: < 5 µM
IC50 [3]: > 10 µM
IC50 [4, 8]: > 10 µM
IC50 [6]: > 10 µM

SMILES: Fc1cncc(CNc2ccc(Cc3c[nH]c4ncc(Cl)cc34)c(F)n2)c1 [Compound P-2001, [5-(5-Chloro-1H-pyrrolo[2,3-b]pyridin-3-ylmethyl)-6-fluoro-pyridin-2-yl]-(5-fluoro-pyridin-3-ylmethyl)-amine]
IC50 ([1]; read-out: Cyp IC50 (μM) 2C19): < 5 µM
IC50 [2]: 5 to 10 µM
IC50 [3]: > 10 µM
IC50 [4]: 5 to 10 µM
IC50 [5]: 5 to 10 µM
IC50 [6]: > 10 µM

SMILES: COc1cnc2[nH]cc(Cc3ccc(NCc4cncc(F)c4)nc3F)c2c1 [Compound P-2028, [6-Fluoro-5-(5-methoxy-1H-pyrrolo[2,3-b]pyridin-3-ylmethyl)-pyridin-2-yl]-(5-fluoro-pyridin-3-ylmethyl)-amine]
IC50 ([1]; read-out: Cyp IC50 (μM) 2C19): > 10 µM
IC50 ([2]; read-out: Cyp IC50 (μM) 2C9): < 5 µM
IC50 [4, 8]: < 5 µM
IC50 [5, 9]: < 5 µM
IC50 [6]: > 10 µM

SMILES: COc1cnc2[nH]cc(Cc3ccc(NCc4cccnc4OC)nc3F)c2c1 [Compound P-2043, [6-Fluoro-5-(5-methoxy-1H-pyrrolo[2,3-b]pyridin-3-ylmethyl)-pyridin-2-yl]-(2-methoxy-pyridin-3-ylmethyl)-amine]
IC50 [2]: 5 to 10 µM
IC50 [4, 8]: > 10 µM
IC50 [5]: 5 to 10 µM
IC50 [6]: > 10 µM

SMILES: COc1ncccc1CNc1ccc(Cc2c[nH]c3ncccc23)c(F)n1 [Compound P-2045, [6-Fluoro-5-(1H-pyrrolo[2,3-b]pyridin-3-ylmethyl)-pyridin-2-yl]-(2-methoxy-pyridin-3-ylmethyl)-amine]
IC50 [1]: 5 to 10 µM
IC50 ([2]; read-out: Cyp IC50 (μM) 2C9): > 10 µM
IC50 [4]: 5 to 10 µM
IC50 [5, 9]: > 10 µM
IC50 [6]: > 10 µM

SMILES: COc1ncccc1CNc1ccc(Cc2c[nH]c3ncc(C)cc23)c(F)n1 [Compound P-2052, [6-Fluoro-5-(5-methyl-1H-pyrrolo[2,3-b]pyridin-3-ylmethyl)-pyridin-2-yl]-(2-methoxy-pyridin-3-ylmethyl)-amine]
IC50 [2]: 5 to 10 µM
IC50 [3]: > 10 µM
IC50 [4]: 5 to 10 µM
IC50 [5]: 5 to 10 µM
IC50 [6]: > 10 µM

SMILES: COc1ncc(F)cc1CNc1ncc(Cc2c[nH]c3ncc(C)cc23)cn1 [Compound P-2061, (5-Fluoro-2-methoxy-pyridin-3-ylmethyl)-[5-(5-methyl-1H-pyrrolo[2,3-b]pyridin-3-ylmethyl)-pyrimidin-2-yl]-amine]
IC50 ([1]; read-out: Cyp IC50 (μM) 2C19): > 10 µM
IC50 [2]: 5 to 10 µM
IC50 [3]: > 10 µM
IC50 [4, 8]: > 10 µM
IC50 [5]: 5 to 10 µM
IC50 [6]: > 10 µM

SMILES: Cc1cnc2[nH]cc(Cc3ccc(NCc4cnccc4C(F)(F)F)nc3F)c2c1 [Compound P-2062, [6-Fluoro-5-(5-methyl-1H-pyrrolo[2,3-b]pyridin-3-ylmethyl)-pyridin-2-yl]-(4-trifluoromethyl-pyridin-3-ylmethyl)-amine]
IC50 ([1]; read-out: Cyp IC50 (μM) 2C19): < 5 µM
IC50 ([2]; read-out: Cyp IC50 (μM) 2C9): < 5 µM
IC50 [3]: > 10 µM
IC50 [4]: 5 to 10 µM
IC50 [5]: 5 to 10 µM
IC50 [6]: > 10 µM

SMILES: FC(F)(F)c1ccncc1CNc1ccc(Cc2c[nH]c3ncc(Cl)cc23)cn1 [Compound P-2063, [5-(5-Chloro-1H-pyrrolo[2,3-b]pyridin-3-ylmethyl)-pyridin-2-yl]-(4-trifluoromethyl-pyridin-3-ylmethyl)-amine]
IC50 [1]: 5 to 10 µM
IC50 ([2]; read-out: Cyp IC50 (μM) 2C9): > 10 µM
IC50 [3]: > 10 µM
IC50 [4]: 5 to 10 µM
IC50 [5]: 5 to 10 µM
IC50 [6]: > 10 µM

SMILES: COc1ncc(F)cc1CNc1ncc(Cc2c[nH]c3ncc(Cl)cc23)cn1 [Compound P-2064, [5-(5-Chloro-1H-pyrrolo[2,3-b]pyridin-3-ylmethyl)-pyrimidin-2-yl]-(5-fluoro-2-methoxy-pyridin-3-ylmethyl)-amine]
IC50 [2]: 5 to 10 µM
IC50 [3]: > 10 µM
IC50 [4, 8]: > 10 µM
IC50 [5, 9]: > 10 µM
IC50 [6]: > 10 µM

SMILES: COc1cc(CNc2ccc(Cc3c[nH]c4ncc(C)cc34)c(F)n2)c(F)cn1 [Compound P-2071, (5-Fluoro-2-methoxy-pyridin-4-ylmethyl)-[6-fluoro-5-(5-methyl-1H-pyrrolo[2,3-b]pyridin-3-ylmethyl)-pyridin-2-yl]-amine]
IC50 ([1]; read-out: Cyp IC50 (μM) 2C19): > 10 µM
IC50 [2]: 5 to 10 µM
IC50 [4]: 5 to 10 µM
IC50 [5]: 5 to 10 µM
IC50 [6]: > 10 µM

SMILES: Cc1cnc2[nH]cc(Cc3cnc(NCc4ccc(Cl)nc4)nc3)c2c1 [Compound P-2078, (6-Chloro-pyridin-3-ylmethyl)-[5-(5-methyl-1H-pyrrolo[2,3-b]pyridin-3-ylmethyl)-pyrimidin-2-yl]-amine]
IC50 ([2]; human, 45 min): < 5 µM
IC50 ([6]; CYP1A2 enzyme (BD Biosciences)): > 10 µM

SMILES: COc1ccc(CNc2ccc(Cc3c[nH]c4ncc(C)cc34)c(F)n2)c(OC)n1 [Compound P-2097, (2,6-Dimethoxy-pyridin-3-ylmethyl)-[6-fluoro-5-(5-methyl-1H-pyrrolo[2,3-b]pyridin-3-ylmethyl)-pyridin-2-yl]-amine]
IC50 [2, 7]: < 5 µM
IC50 [3]: > 10 µM
IC50 [4]: 5 to 10 µM
IC50 [5]: 5 to 10 µM
IC50 [6]: > 10 µM

SMILES: Cc1ccc(CNc2ccc(Cc3c[nH]c4ncc(C)cc34)c(F)n2)nc1 [Compound P-2131, [6-Fluoro-5-(5-methyl-1H-pyrrolo[2,3-b]pyridin-3-ylmethyl)-pyridin-2-yl]-(5-methyl-pyridin-2-ylmethyl)-amine]
IC50 [1]: 5 to 10 µM
IC50 [2, 7]: < 5 µM
IC50 [4, 8]: < 5 µM
IC50 [5, 9]: > 10 µM
IC50 [6]: > 10 µM

SMILES: Cn1cc(F)cc(CNc2ncc(Cc3c[nH]c4ncc(Cl)cc34)cn2)c1=O [Compound P-2157, 3-{[5-(5-Chloro-1H-pyrrolo[2,3-b]pyridin-3-ylmethyl)-pyrimidin-2-ylamino]-methyl}-5-fluoro-1-methyl-1H-pyridin-2-one]
IC50 [2, 7]: > 10 µM
IC50 [3]: > 10 µM
IC50 [4]: 5 to 10 µM
IC50 [5, 9]: > 10 µM
IC50 [6]: > 10 µM

IC50 ([1]; read-out: Cyp IC50 (μM) 2C19): < 5 µM
IC50 [2]: 5 to 10 µM
IC50 [3]: > 10 µM
IC50 [4, 8]: > 10 µM
IC50 [6]: > 10 µM
SMILES: Fc1cc(Cc2c[nH]c3ncc(Cl)cc23)cnc1NCc1ccc(C(F)(F)F)nc1 [Compound P-2172, [5-(5-Chloro-1H-pyrrolo[2,3-b]pyridin-3-ylmethyl)-3-fluoro-pyridin-2-yl]-(6-trifluoromethyl-pyridin-3-ylmethyl)-amine]

SMILES: CCS(=O)(=O)Nc1ccccc1CNc1ccc(Cc2c[nH]c3ncc(C)cc23)c(F)n1 [Compound P-2198, Ethanesulfonic acid (2-{[6-fluoro-5-(5-methyl-1H-pyrrolo[2,3-b]pyridin-3-ylmethyl)-pyridin-2-ylamino]-methyl}-phenyl)-amide]
IC50 ([1]; read-out: Cyp IC50 (μM) 2C19): < 5 µM
IC50 [2]: 5 to 10 µM
IC50 [3]: > 10 µM
IC50 [4, 8]: < 5 µM
IC50 [6]: > 10 µM
